In patent US20170296682A1, “DERIVATIVES OF DIBENZOTHIOPHENE IMAGING OF alpha-7 NICOTINIC ACETYLCHOLINE RECEPTORS” (THE JOHNS HOPKINS UNIVERSITY, priority 2015, published 2017):
“And” between values parts separate entries of the source, which are not always exact repeats. Equal entries are not always repeated. Where two headings read alike, the source gives them in different places.

Tests used:
α7-nAChR [1] = biological target: T1, α7-nAChR (Homo sapiens, UniProt P36544); details: read-out: α7-nAChR, Ki, cited from earlier work
α7-nAChR [2] = biological target: T2, α7-nAChR (Mus musculus, UniProt P49582); details: in vivo; cited from earlier work
α7-nAChR [3] = biological target: T2, α7-nAChR; details: drugs 2 mg/kg sc, 10 min before radiotracer, 90 min
a7-nAChR = details: baboon
α7-nAChR [4] = biological target: T1, α7-nAChR; details: read-out: Ki α7-nAChR (literature); cited from earlier work
α7-nAChR [5] = biological target: T2, α7-nAChR; set-up: The brains were rapidly removed and dissected on ice; tissue Charles River Laboratories; host or cells: brain of live male CD-1 mice; species or system CD-1 mice; details: in vivo
α7-nAChR [6] = biological target: T3, α7-nAChR (Rattus norvegicus, UniProt Q05941); experiment: biochemical; assay type: binding
α2β2-nAChR = α2β2-nAChR (Rattus norvegicus, UniProt P12389+P12390); experiment: Heteromeric nAChR binding assay, transfected HEK293 membranes, [3H]epibatidine
α2β4-nAChR = biological target: T4, α2β4-nAChR (Rattus norvegicus, UniProt P12389+P12392); experiment: as above
T4 construct: expressed in transfected cells

α3β2-nAChR = α3β2-nAChR (Rattus norvegicus, UniProt P04757+P12390); experiment: as above
α3β4-nAChR = biological target: T5, α3β4-nAChR (Rattus norvegicus, UniProt P04757+P12392); experiment: as above
T5 construct: expressed in transfected cells

α4β2-nAChR = α4β2-nAChR (Rattus norvegicus, UniProt P09483+P12390); experiment: as above
α4β4-nAChR = biological target: T6, α4β4-nAChR (Rattus norvegicus, UniProt P09483+P12392); experiment: as above
T6 construct: expressed in transfected cells

Human 5-HT3 [7] = biological target: T7, Human 5-HT3 (Homo sapiens, UniProt P46098); experiment: 5-HT3(h) binding assay, recombinant HEK293 cells, [3H]GR65630
T7 sequence (P46098 24-478): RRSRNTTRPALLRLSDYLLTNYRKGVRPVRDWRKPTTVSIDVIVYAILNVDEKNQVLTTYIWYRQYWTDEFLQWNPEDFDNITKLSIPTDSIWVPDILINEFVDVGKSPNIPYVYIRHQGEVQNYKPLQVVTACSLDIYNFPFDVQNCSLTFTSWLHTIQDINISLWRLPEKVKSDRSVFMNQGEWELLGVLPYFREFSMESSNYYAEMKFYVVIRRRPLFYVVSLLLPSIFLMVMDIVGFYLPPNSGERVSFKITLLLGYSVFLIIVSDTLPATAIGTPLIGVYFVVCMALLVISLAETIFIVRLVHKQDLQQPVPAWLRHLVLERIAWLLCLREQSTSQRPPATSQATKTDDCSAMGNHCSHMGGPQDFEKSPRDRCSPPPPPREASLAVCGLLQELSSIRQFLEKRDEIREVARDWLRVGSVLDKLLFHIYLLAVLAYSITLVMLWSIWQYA

α7-nAChR [8] = biological target: T2, α7-nAChR; details: in vivo
α7-nAChR [9] = biological target: T2, α7-nAChR; experiment: Blockade of [18F]ASEM in CD1 mice with mouse-equivalent doses of clinical α7-nAChR drugs; assay type: in vivo; set-up: The brains were rapidly removed and dissected on ice; tissue Charles River Laboratories; host or cells: brain of live male CD-1 mice
Human 5-HT3 [10] = biological target: T7, Human 5-HT3; details: read-out: KD of radiotracer, 5-HT3; cited from earlier work
α7-nAChR [11] = biological target: T2, α7-nAChR; set-up: The brains were rapidly removed and dissected on ice; tissue Charles River Laboratories; host or cells: brain of live male CD-1 mice; species or system CD-1 mice; details: in vivo; remark: listed apart in the source
α7-nAChR [12] = biological target: T2, α7-nAChR; details: in vivo; remark: listed apart in the source
α7-nAChR [13] = biological target: T3, α7-nAChR; details: read-out: KD of radiotracer, α7-nAChR; cited from earlier work
[14] = previously published values, varied assay conditions
[15] = stably transfected HEK293 cells, [3H]epibatidine (0.5 nM)

T2 sequence (P49582 23-502): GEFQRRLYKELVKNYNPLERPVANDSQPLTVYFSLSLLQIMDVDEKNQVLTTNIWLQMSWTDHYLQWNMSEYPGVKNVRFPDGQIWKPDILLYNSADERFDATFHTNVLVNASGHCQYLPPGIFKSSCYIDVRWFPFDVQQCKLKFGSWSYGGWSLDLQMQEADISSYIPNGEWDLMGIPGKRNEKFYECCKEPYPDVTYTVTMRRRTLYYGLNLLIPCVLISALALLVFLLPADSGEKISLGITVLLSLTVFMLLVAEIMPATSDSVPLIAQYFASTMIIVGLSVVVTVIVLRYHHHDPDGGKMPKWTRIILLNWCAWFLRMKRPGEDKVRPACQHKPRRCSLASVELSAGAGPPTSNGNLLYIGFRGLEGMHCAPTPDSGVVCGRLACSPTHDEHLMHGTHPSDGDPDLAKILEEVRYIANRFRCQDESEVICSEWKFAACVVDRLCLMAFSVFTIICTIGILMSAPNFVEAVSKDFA
T3 sequence (Q05941 23-502): as the sequence (P49582 23-502) above, with T402A counted along it
Chain of α4β2-nAChR (P09483 31-630): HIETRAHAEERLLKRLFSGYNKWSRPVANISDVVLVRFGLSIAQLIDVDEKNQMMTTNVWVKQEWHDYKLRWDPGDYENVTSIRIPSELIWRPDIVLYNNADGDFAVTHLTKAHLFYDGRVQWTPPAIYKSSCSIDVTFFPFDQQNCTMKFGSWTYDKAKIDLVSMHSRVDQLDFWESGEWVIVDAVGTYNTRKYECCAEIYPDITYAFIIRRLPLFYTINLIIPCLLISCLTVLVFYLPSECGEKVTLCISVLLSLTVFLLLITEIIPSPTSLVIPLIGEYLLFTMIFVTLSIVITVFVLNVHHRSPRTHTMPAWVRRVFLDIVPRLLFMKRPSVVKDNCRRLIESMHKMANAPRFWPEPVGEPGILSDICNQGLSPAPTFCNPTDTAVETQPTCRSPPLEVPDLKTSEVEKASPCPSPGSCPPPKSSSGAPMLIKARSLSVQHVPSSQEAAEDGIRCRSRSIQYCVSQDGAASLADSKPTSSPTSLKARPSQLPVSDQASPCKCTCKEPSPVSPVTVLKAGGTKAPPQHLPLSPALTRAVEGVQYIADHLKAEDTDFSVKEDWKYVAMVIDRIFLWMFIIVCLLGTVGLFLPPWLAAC
Chain of α4β2-nAChR (P12390 25-500): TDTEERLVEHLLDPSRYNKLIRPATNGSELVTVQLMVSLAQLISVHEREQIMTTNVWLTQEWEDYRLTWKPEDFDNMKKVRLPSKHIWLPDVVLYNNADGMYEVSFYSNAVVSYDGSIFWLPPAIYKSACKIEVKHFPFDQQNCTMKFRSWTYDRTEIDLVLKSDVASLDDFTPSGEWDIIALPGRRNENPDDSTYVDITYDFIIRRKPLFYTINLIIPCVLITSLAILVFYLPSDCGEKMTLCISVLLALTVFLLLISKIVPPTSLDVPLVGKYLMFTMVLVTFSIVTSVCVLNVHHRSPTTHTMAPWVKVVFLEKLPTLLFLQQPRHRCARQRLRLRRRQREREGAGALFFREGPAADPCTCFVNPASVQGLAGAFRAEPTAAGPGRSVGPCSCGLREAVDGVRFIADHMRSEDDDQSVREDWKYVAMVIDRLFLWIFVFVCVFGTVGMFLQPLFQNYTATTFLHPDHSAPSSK
T6 sequence (P09483 31-630): as the sequence (P09483 31-630) above
T6 sequence (P12392 21-495): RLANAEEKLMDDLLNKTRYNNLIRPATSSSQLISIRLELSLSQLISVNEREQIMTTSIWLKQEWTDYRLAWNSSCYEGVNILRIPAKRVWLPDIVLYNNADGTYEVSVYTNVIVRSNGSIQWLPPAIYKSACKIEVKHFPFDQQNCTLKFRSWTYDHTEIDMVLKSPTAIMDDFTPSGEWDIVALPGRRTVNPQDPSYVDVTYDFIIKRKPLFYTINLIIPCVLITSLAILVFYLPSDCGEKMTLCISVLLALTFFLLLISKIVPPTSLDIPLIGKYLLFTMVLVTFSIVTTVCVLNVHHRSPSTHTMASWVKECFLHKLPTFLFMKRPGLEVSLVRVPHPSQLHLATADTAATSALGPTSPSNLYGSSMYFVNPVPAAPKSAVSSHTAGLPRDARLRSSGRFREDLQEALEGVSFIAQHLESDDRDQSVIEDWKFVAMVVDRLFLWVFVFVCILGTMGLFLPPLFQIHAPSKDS
Chain of α2β2-nAChR (P12389 28-511): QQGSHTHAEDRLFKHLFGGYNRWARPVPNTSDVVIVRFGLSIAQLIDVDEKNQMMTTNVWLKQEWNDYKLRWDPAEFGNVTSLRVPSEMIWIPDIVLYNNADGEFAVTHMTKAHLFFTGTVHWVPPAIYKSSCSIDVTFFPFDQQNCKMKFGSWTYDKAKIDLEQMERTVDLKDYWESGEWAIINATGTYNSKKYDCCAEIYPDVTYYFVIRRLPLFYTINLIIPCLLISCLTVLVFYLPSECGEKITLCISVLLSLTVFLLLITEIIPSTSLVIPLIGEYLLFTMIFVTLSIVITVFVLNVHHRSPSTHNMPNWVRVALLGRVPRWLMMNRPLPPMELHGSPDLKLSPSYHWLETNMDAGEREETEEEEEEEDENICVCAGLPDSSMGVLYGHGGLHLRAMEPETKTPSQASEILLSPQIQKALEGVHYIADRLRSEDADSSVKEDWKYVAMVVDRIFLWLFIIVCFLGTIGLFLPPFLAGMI
Chain of α2β2-nAChR (P12390 25-500): as the sequence (P12390 25-500) above
T4 sequence (P12389 28-511): as the sequence (P12389 28-511) above
T4 sequence (P12392 21-495): as the sequence (P12392 21-495) above
T1 sequence (P36544 23-502): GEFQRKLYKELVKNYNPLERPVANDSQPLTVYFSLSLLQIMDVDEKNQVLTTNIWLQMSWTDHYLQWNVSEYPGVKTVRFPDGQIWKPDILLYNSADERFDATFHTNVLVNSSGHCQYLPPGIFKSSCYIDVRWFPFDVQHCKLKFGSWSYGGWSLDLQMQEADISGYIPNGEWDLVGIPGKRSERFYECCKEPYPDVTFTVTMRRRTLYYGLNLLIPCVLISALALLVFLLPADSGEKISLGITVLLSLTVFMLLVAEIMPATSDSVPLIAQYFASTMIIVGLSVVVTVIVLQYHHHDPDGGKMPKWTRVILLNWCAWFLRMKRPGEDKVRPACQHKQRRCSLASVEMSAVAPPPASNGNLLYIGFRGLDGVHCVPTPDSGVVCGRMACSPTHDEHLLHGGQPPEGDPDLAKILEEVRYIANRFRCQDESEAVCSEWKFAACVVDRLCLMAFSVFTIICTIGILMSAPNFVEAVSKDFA
Chain of α3β2-nAChR (P04757 26-499): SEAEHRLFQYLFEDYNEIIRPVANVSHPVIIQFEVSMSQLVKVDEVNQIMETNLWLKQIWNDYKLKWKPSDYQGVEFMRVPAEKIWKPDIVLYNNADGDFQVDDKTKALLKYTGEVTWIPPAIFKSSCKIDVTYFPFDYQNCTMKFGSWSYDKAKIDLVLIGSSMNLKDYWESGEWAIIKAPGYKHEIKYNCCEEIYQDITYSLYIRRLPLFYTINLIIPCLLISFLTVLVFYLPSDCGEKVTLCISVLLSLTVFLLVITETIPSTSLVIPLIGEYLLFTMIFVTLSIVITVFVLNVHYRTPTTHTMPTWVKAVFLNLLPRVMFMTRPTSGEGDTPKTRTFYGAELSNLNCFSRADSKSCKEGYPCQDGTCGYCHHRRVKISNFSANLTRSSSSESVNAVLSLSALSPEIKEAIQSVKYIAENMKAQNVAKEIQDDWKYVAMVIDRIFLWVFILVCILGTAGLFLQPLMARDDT
Chain of α3β2-nAChR (P12390 25-500): as the sequence (P12390 25-500) above
T5 sequence (P04757 26-499): as the sequence (P04757 26-499) above
T5 sequence (P12392 21-495): as the sequence (P12392 21-495) above

[125I]c1occc1-c1cnc2c(c1)CC1(CN3CCC1CC3)O2 (centres unmarked)
Ki (α7-nAChR [1]): 0.26 nM
BPND in cortex, Mice (α7-nAChR [2]): 0.6

O=[11C](Nc1ccc(Br)cc1)OC1CN2CCC1CC2 (centres unmarked)
BPND in cortex, Mice (α7-nAChR [2]): ~0.3

[11CH3]N1CC2CN(c3ccc(-c4ccccc4)nn3)CC2C1 (centres unmarked)
Ki (α7-nAChR [1]): 10.8 nM
BPND in cortex, Mice (α7-nAChR [2]): 0.2-0.5

[11CH3]N1CC2CN(c3ccc4c(c3)C(=O)C3C=CC=CC3O4)CC2C1 (centres unmarked)
Ki (α7-nAChR [1]; [14]): 11 nM

[11CH3]N1CC2CN(c3ccc(-c4ccc5[nH]ccc5c4)nn3)CC2C1 (centres unmarked)
BPND in cortex, Mice (α7-nAChR [2]): 0.5

[11CH3]c1ccc(OC(=O)N2CCN3CCC2CC3)cc1
BPND in cortex, Mice (α7-nAChR [2]): ~0.6

[18F]CCn1ccc2ccc(-c3nnc(N4CCN5CCC4CC5)o3)cc21
Ki (α7-nAChR [1]): 2.5 nM

O=C(Oc1ccc([76Br])cc1)N1CCN2CCC1CC2
Ki (α7-nAChR [1]; [14]): 24.9 nM

[11CH3]n1cccc1-c1nnc(N2CCN3CCC2CC3)o1
Ki (α7-nAChR [1]): 2.2 nM

[18F]c1ccc(-c2nnc(N3CCN4CCC3CC4)o2)cc1
BPND in cortex, Mice (α7-nAChR [2]): 0.4

[18F]c1ccccc1-c1cnc2c(c1)CC1(CN3CCC1CC3)O2 (centres unmarked)
Ki (α7-nAChR [1]): 0.2 nM
BPND in cortex, Mice (α7-nAChR [2]): 0.8

[11CH3]N1CC2CN(c3ccc(-c4ccc5[nH]ccc5c4)nc3)CC21 (centres unmarked) [5-(5-(6-[(11)C]methyl-3,6-diazabicyclo[3.2.0]heptan-3-yl)pyridin-2-yl)-1H-indole]
BPND in cortex, Mice (α7-nAChR [2]): 1.9

O=C(Oc1ccc(Br)cc1)N1CCN2CCC1CC2 [Compound 1, reference compound]
effect on accumulation of [18F]7a in mouse brain (α7-nAChR [3]): reduced accumulation of radioactivity
Mean occupancy of a7-nAChRs (a7-nAChR; dose of 0.5 mg/kg iv, individual VND values): 38%
Mean occupancy of a7-nAChRs (a7-nAChR; dose of 0.5 mg/kg iv, mean VND value of 2 doses): 32.9%
Mean occupancy of a7-nAChRs (a7-nAChR; dose of 5 mg/kg iv, individual VND values): 80.5%
Mean occupancy of a7-nAChRs (a7-nAChR; dose of 5 mg/kg iv, mean VND value of 2 doses): 94.1%
Ki (α7-nAChR [4]): 22 nM
blockade of [18F]7a accumulation in mouse brain (α7-nAChR [5]): dose dependent blockade in all regions studied

O=S1(=O)c2ccccc2-c2ccc(N3CCN4CCC3CC4)cc21 [Compound 5, 3-(1,4-diazabicyclo[3.2.2]nonan-4-yl)dibenzo[b,d]thiophene 5,5-dioxide, reference compound]
Ki (α7-nAChR [6]; read-out: Ki α7-nAChR (reference compounds)): 0.3 nM and 0.5 nM
Ki (α7-nAChR [4]): 0.023 nM
blockade of [18F]7c accumulation in mouse brain (α7-nAChR [5]): dose dependent blockade

O=S1(=O)c2cc(F)ccc2-c2ccc(N3CCN4CCC3CC4)cc21 [Compound 7b, 4-(7-Fluorodibenzo[b,d]thiophen-3-yl)-1,4-diazabicyclo-[3.2.2]nonane 5,5-Dioxide]
Ki (α7-nAChR [6]; read-out: Ki α7-nAChR): 1.02 nM and 1.37 nM

O=S1(=O)c2ccc(F)cc2-c2ccc(N3CCN4CCC3CC4)cc21 [Compound 7c, 7-(1,4-Diazabicyclo[3.2.2]nonan-4-yl)-2-fluorodibenzo[b,d]-thiophene 5,5-Dioxide]
Ki (α7-nAChR [6]; Ki α7-nAChR): 1.35 nM
Ki (α7-nAChR [6]; Ki α7-nAChR (text)): 1.3 nM
Ki (α7-nAChR [6]; read-out: Ki α7-nAChR): 1.32 nM
Ki (α2β2-nAChR; [15]): 1000 nM
Ki (α2β4-nAChR; [15]): 8000 nM
Ki (α3β2-nAChR; [15]): 2000 nM
Ki (α3β4-nAChR; [15]): 5000 nM
selectivity α7/α4β2 (α4β2-nAChR): 663
Ki (α4β2-nAChR; [15]): 885 nM
Ki (α4β4-nAChR; [15]): 3000 nM
selectivity α7/5HT3 (Human 5-HT3 [7]): 378
Ki (Human 5-HT3 [7]; Human 5-HT3 recombinant/HEK293 cells, [3H]GR65630 (0.35 nM)): 505 nM
behavioral / locomotor activity changes (α7-nAChR [8]): Neither behavioral nor locomotor activity changes were observed

O=S1(=O)c2ccccc2-c2ccc(N3CCN4CCC3CC4)c(F)c21 [Compound 7d, 3-(1,4-Diazabicyclo[3.2.2]nonan-4-yl)-4-fluorodibenzo[b,d]-thiophene 5,5-Dioxide]
Ki (α7-nAChR [6]; read-out: Ki α7-nAChR): 1.83 nM and 2.45 nM
Ki (α2β2-nAChR): 292 nM
Ki (α2β4-nAChR): 838 nM
Ki (α3β2-nAChR): 678 nM
Ki (α3β4-nAChR): 3000 nM
Ki (α4β2-nAChR): 141 nM
selectivity α7/α4β2 (α4β2-nAChR): 66
Ki (α4β4-nAChR): 1000 nM

O=S1(=O)c2ccccc2-c2c(N3CCN4CCC3CC4)ccc(F)c21 [Compound 7e, 1-(1,4-Diazabicyclo[3.2.2]nonan-4-yl)-4-fluorodibenzo[b,d]-thiophene 5,5-Dioxide]
Ki (α7-nAChR [6]; read-out: Ki α7-nAChR): 17.8 nM and 20.3 nM
Ki (α2β4-nAChR; [15]): 562 nM
Ki (α3β2-nAChR; [15]): 2000 nM
Ki (α3β4-nAChR; [15]): 261 nM
selectivity α7/α4β2 (α4β2-nAChR): 210
Ki (α4β2-nAChR; [15]): 4000 nM
Ki (α4β4-nAChR; [15]): 251 nM

O=[N+]([O-])c1cccc2c1S(=O)(=O)c1cc(N3CCN4CCC3CC4)ccc1-2 [Compound 10, 3-(1,4-Diazabicyclo[3.2.2]nonan-4-yl)-6-nitrodibenzo[b,d]-thiophene 5,5-Dioxide]
Ki (α7-nAChR [6]; Ki α7-nAChR): 0.35 nM
Ki (α7-nAChR [6]; read-out: Ki α7-nAChR): 0.34 nM

O=[N+]([O-])c1ccc2c(c1)-c1ccc(N3CCN4CCC3CC4)cc1S2(=O)=O [Compound 11, 7-(1,4-Diazabicyclo[3.2.2]nonan-4-yl)-2-nitrodibenzo[b,d]-thiophene 5,5-Dioxide]
Ki (α7-nAChR [6]; read-out: Ki α7-nAChR): 3.41 nM and 6.21 nM

O=S1(=O)c2cc(N3CCN4CCC3CC4)ccc2-c2cccc(I)c21 [Compound 14, 3-(1,4-Diazabicyclo[3.2.2]nonan-4-yl)-6-iododibenzo[b,d]-thiophene 5,5-Dioxide]
Ki (α7-nAChR [6]; read-out: Ki α7-nAChR): 0.93 nM

O=S1(=O)c2ccc(I)cc2-c2ccc(N3CCN4CCC3CC4)cc21 [Compound 15, 7-(1,4-Diazabicyclo[3.2.2]nonan-4-yl)-2-iododibenzo[b,d]-thiophene 5,5-Dioxide]
Ki (α7-nAChR [6]; read-out: Ki α7-nAChR): 6.46 nM and 8.77 nM
Ki (α2β2-nAChR): 784 nM
Ki (α2β4-nAChR): 6000 nM
Ki (α3β2-nAChR): 1000 nM
Ki (α3β4-nAChR): 9000 nM
Ki (α4β2-nAChR): 477 nM
selectivity α7/α4β2 (α4β2-nAChR): 63
Ki (α4β4-nAChR): 5000 nM

COc1ccc(/C=C2\CCCN=C2c2cccnc2)c(OC)c1 [DMXB-A, Dimethoxybenzylidene anabaseine]
blockade of [18F]ASEM binding (α7-nAChR [9]; 3 mg/kg, cortex): 40%
blockade of [18F]ASEM binding (α7-nAChR [9]; 3 mg/kg, hippocampus): 28%
blockade of [18F]ASEM binding (α7-nAChR [9]; 10 mg/kg, hippocampus, cortex, subcolliculus): 50-70%
blockade of [18F]ASEM binding (α7-nAChR [9]; 25 mg/kg, hippocampus, cortex, superior and inferior colliculus): 50-60%
blockade of [18F]ASEM binding (α7-nAChR [9]; 0.1, 0.3, and 1 mg/kg): did not show significant blockade

Cc1[nH]cnc1CCC(=O)c1cn(C)c2ccccc12 [[^3H]GR65630]
Kd (Human 5-HT3 [10]): 0.5 nM

O=S1(=O)c2ccc([18F])cc2-c2ccc(N3CCN4CCC3CC4)cc21 [[^18F]7c, 4-(8-[^18F]fluorodibenzo[b,d]thiophen-3-yl)-1,4-diazabicyclo[3.2.2]nonane 5,5-dioxide]
Ki (α7-nAChR [6]; Ki α7-nAChR (text)): 1.3 nM
baseline-to-blockade ratio (α7-nAChR [8]): 5
specific binding value (α7-nAChR [8]): 80%
Approximate BPND, Coll (α7-nAChR [11]): 2.0 ± 0.5
Approximate BPND, Ctx (α7-nAChR [11]): 2.0 ± 0.3
Approximate BPND, Hipp (α7-nAChR [11]): 3.1 ± 0.7
ratios of tissues to cerebellum (α7-nAChR [11]; iv): 4.5

O=c1cccc2n1C[C@@H]1CNC[C@H]2C1 [cytisine]
blockade of [18F]7a accumulation in mouse brain (α7-nAChR [12]): insignificant reduction of radioactivity accumulation in all regions studied

CN1CCCC1c1cccnc1 (centres unmarked) [nicotine]
blockade of [18F]7a accumulation in mouse brain (α7-nAChR [12]): significant blockade in all regions except the nAChR-poor cerebellum

Cc1nccn1CC1CCc2c(c3ccccc3n2C)C1=O (centres unmarked) [ondansetron]
effect on accumulation of [18F]7a in mouse brain (α7-nAChR [3]): absence of blockade

[^125I]α-bungarotoxin
Kd (α7-nAChR [13]): 0.7 nM
